Measured values: patent US11441029B1, “Packaging films, and methods of preparation thereof” (King Abdulaziz University, priority 2022, dated 2022)

System: gram-positive and gram-negative bacteria
Assay: Antimicrobial activity of films, bacteria not specified at the place
Assay type: cell-based
Method: Active cultures were prepared by inoculating freshly cultured bacteria or pure colony (24 hours (h)) into lysogeny broth (LB) broth, then incubated in a shaker for 24 h at 30° C. with 200 revolutions per minute (rpm). The optical density (OD) for each culture was set to 0.05, equivalent to 1-2×10^5 colony forming units/millilitre (CFU/mL) by adding LB broth. […] Thereafter, re-suspension was carried out for each sample using 4.6 mL of 0.85 wt. % sodium chloride. Serial dilution was conducted, and 100 microlitre (μL) for each dilution was transferred to LB agar plates. Then, those agar plates were allowed to undergo incubation for 24 h at 30° C. Gentamicin was used as a positive control, and pure PBS film were used as negative control for the microbial culture. […] The whole antimicrobial process was conducted in triplicate to obtain average values. The microbial population was calculated as log CFU per mL sample, and the actual number in each dilution was determined for dishes containing 30-300 colonies using Equation 1 as below: [formula] where C refers to total counts of bacteria in all retained dishes; V refers to volume used for sample dilution; n1 refers to number of retained dishes in first dilution; n2 refers to number of retained dishes in second dilution; D refers to dilution factor of first dilution.

In the case of [O-]n1ccccc1=S.[O-]n1ccccc1=S.[Zn+2] [SAN, zinc, bis[1-(hydroxy-.kappa.O)-2(1H)-pyridinethionato-.kappa.S2]-,(T-4)-], the “antimicrobial activity (general statement)” value is reported as “exhibited antimicrobial effects”.
